Measured values published in PubChem BioAssay (NCI).
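Compound exposure: 48 hours, 5 concentrations, 96-well plates. TGI: total growth inhibition.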

What was measured:
Test in all cases: NCI anticancer screen, dose series, 48 h
[1] = system: CAKI-1 renal
[2] = system: DU-145 prostate
[3] = system: NCI-H23 lung
[4] = system: UACC-257 melanoma
[5] = system: SF-295 CNS
[6] = system: HOP-62 NSCLC
[7] = system: SK-MEL-2 melanoma
[8] = system: HCC-2998 colon
[9] = system: MDA-N
[10] = system: BT-549 breast
[11] = system: EKVX NSCLC

Measured: TGI

COC(=O)C1=C(OC(=O)/C(=C/c2ccc(Cl)cc2)c2ccc(Cl)cc2)C(C(=O)OC)[C@@]2(O)[C@@H](C(=O)OC)[C@H](C)C[C@@H]1[C@@H]2C(=O)OC (stereo not given in full)
> 100 µM: all assays above

CC1(C)CC(=O)C(C=NC(=S)c2ccccc2)=C(O)C1
> 100 µM: all assays above

C=CCn1c(N)c(C#N)c(C#N)c1-c1ccccc1
> 100 µM: all assays above

COC(=O)C1=C(C(=O)OC)N(c2ccc(OC)cc2[N+](=O)[O-])C(c2ccc(C)cc2)=CC1c1ccc(OC)cc1OC (stereo not given)
> 80.4 µM: [7]
> 92.4 µM: [1]
30.6 µM: [8]
> 72.7 µM: [6]
> 100 µM: all other assays above

O=C1Nc2cccc(Cl)c2/C1=C\c1c(Cl)nc2n1CCS2
> 100 µM: all assays above

CO/N=C(\C)c1ccc(Nc2nc3ccccc3c3occc23)cc1
28.7 µM: [9]
31.5 µM: [5]
29.7 µM: [2]
27.5 µM: [11]
31 µM: [10]
29.5 µM: [6]
33.4 µM: [7]
30.4 µM: [8]
28.9 µM: [3]
31.4 µM: [4]
32 µM: [1]

BrC1=C(Br)C2(SCCS2)[C@H]2C[C@@H]1c1ccccc12
> 89.6 µM: [8]
> 26.2 µM: [9]
> 100 µM: all other assays above

O=C1Sc2cc3ccccc3cc2C(=O)Sc2ccc(Br)cc21
28.1 µM: [11]
23.3 µM: [3]
12.8 µM: [7]
16.9 µM: [2]
18.3 µM: [6]
19.3 µM: [8]
14.8 µM: [1]
17.6 µM: [4]
29.1 µM: [5]
12.1 µM: [10]
18 µM: [9]

CC(=O)c1ccccc1NP(=O)(c1ccccc1)c1ccccc1
> 100 µM: all assays above

CCCCCCNc1n[nH]c(=O)c2c1nnn2Cc1ccccc1
> 100 µM: all assays above
